Experimental data published in PubChem BioAssay AID1963830 (Molecular Pharmacology Branch, DTP, NCI, 2024).

Tested on: 922993-354-T-J3-PDC complex spheroid viability
Assay: Anticancer human tumor 922993-354-T-J3-PDC patient-derived endometrial carcinoma cell line growth inhibition [POLQ]
Details: for IC50: curve of first compound; for viability, T/C: stronger effect = lower value
Protocol: Multicellular complex tumor spheroid response to Polymerase (POL) inhibitors (novobiocin, ART-558, RP6685) in combination with a variety of drugs and investigational agents in selected tumor cell lines
The POL inhibitors (novobiocin, ART-558, and RP6685) were evaluated both individually and in combination with standard of care and investigational anticancer small molecules within a complex spheroid model of solid tumors. . Complex spheroids include a stromal component modeled by human endothelial cells (HUVEC) and fibroblasts modeled by human mesenchymal stem cells (MSCs). The concentration ranges selected for each drug and investigational agent were based upon clinically achievable concentrations if the clinical Cmax of the agent was known.
Compounds. The drugs and investigational agents: novobiocin (NSC847541), ART-558 (NSC835418), RP-6685 (NSC848927), peposertib (NSC802822), ceralasertib (NSC780249), elimusertib (NSC800525), camonsertib (NSC841442), AZD-1390 (NSC803789), olaparib (NSC753686), talazoparib (NSC767125), rucaparib (NSC756644), sotorasib (NSC818433), MRTX-1133 (NSC836407), SN-38 (NSC673596), topotecan (NSC609699), epotoside (NSC141540), doxorubicin (NSC123127), gemcitabine (NSC613327), 5-fluorouracil (NSC19893), paclitaxel (NSC125973), vemurafenib (NSC761431), MSA-2 (NSC828583), SN-011 (NSC837082), adavosertib (NSC754352), prexasertib (NSC758257), carboplatin (NSC241240) and oxaliplatin (NSC266046), were obtained from the National Cancer Institute (NCI) Developmental Therapeutics Program Chemical Repository (21). The FDA-approved anticancer drug set is available from the Developmental Therapeutics Program at https://dtp.cancer.gov/organization/dscb/obtaining/. […] The stock solutions were prepared in dimethyl sulfoxide (DMSO, Sigma-Aldrich, St. Louis, MO, cat. D2650), except for the platinum compounds which were prepared in saline (Quality Biological, Gaithersburg, MD, cat. 114-055-101), at 800-fold the tested concentration and stored at -70 degrees C prior to their use. All drugs and investigational agents were tested over a range starting from a high concentration at or near the clinical Cmax and decreasing in half-log increments. If the clinical Cmax for an agent had not been determined, the highest concentration tested was 10 microM, except for SN-38, which was tested at a high concentration of 1 microM.
Cell Culture. All cells were maintained in an incubator at 37 degrees C and 5% CO2 with 95% humidity. The PDC lines were cultured according to standard operating procedures established by the NCI PDMR (https://pdmr.cancer.gov). Table 3 of the manuscript, lists the cell lines along with the number of the three cell types plated to form the mct-spheroids and media for tumor cell growth. After thawing, all PDC lines, except 997537-175-T-J1-PDC and 415267-285-R-J2-PDC, were cultured in Matrigel-coated flasks prepared with a working solution of 1X Ham's F-12 nutrient mix, without supplementation (Thermo Fisher Scientific, cat. 11765054), 100 U/mL penicillin-streptomycin (Thermo Fisher Scientific, cat. 15140122), and 2.5% Matrigel (Corning Inc., Corning, NY, cat. 354248) for the first three passages. The two PDC lines 997537-175-T-J1-PDC and 415267-285-R-J2-PDC were cultured on uncoated flasks. The 857933-349-R-J2-PDC line was cultured in 6C/Colon 1B media containing advanced DMEM/F-12 (Thermo Fisher Scientific, cat. 12634028), 10 mM HEPES (Thermo Fisher Scientific, cat. 15630080), 1X GlutaMAX supplement (Thermo Fisher Scientific, cat. 35050061), 0.1 mg/mL primocin (InvivoGen, San Diego, CA, cat. ant-pm-2), 10% defined fetal bovine serum, heat inactivated (HyClone Laboratories Inc., Logan, UT, cat. SH30070.03HI), 50% L-WRN conditioned media (ATCC, cat. CRL-3276), 1.25 mM N-Acetyl-L-cysteine (Sigma-Aldrich, cat. A9165), 10 mM nicotinamide (Sigma-Aldrich, cat. N0636), 1X B-27 supplement (Thermo Fisher Scientific, cat. 17504044), 1X N-2 supplement (Thermo Fisher Scientific, cat. […]
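Also: spheroids exposed to the agents for one week.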
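For viability, T/C in this document: 100% = DMSO vehicle control wells.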

CCc1c2c(nc3ccc(O)cc13)-c1cc3c(c(=O)n1C2)COC(=O)[C@]3(O)CC + Nc1ccc(C#CCN(C(=O)Cc2ncc(C(F)(F)F)cc2C(F)(F)F)c2ccc(F)cc2)nn1
IC50 (second compound 0.0316 µM): 27.9 nM | IC50 (second compound 0.1 µM): 26.2 nM | IC50 (second compound 0.316 µM): 31 nM | IC50 (second compound 1 µM): 32.2 nM | IC50 (second compound 3.16 µM): 22.1 nM | IC50 (second compound 10 µM): 14.4 nM | viability, T/C (second compound 0.0316 µM, first compound 0.00316 µM): 99% | viability, T/C (second compound 0.0316 µM, first compound 0.01 µM): 91.1% | viability, T/C (second compound 0.0316 µM, first compound 0.0316 µM): 45.5% | viability, T/C (second compound 0.0316 µM, first compound 0.1 µM): 20.1% | viability, T/C (second compound 0.0316 µM, first compound 0.316 µM): 18.8% | viability, T/C (second compound 0.0316 µM, first compound 1 µM): 26.7% | viability, T/C (second compound 0.1 µM, first compound 0.00316 µM): 100% | viability, T/C (second compound 0.1 µM, first compound 0.01 µM): 88.8% | viability, T/C (second compound 0.1 µM, first compound 0.0316 µM): 43.3% | viability, T/C (second compound 0.1 µM, first compound 0.1 µM): 17.9% | viability, T/C (second compound 0.1 µM, first compound 0.316 µM): 19.8% | viability, T/C (second compound 0.1 µM, first compound 1 µM): 24.8% | viability, T/C (second compound 0.316 µM, first compound 0.00316 µM): 104% | viability, T/C (second compound 0.316 µM, first compound 0.01 µM): 92.2% | viability, T/C (second compound 0.316 µM, first compound 0.0316 µM): 50.3% | viability, T/C (second compound 0.316 µM, first compound 0.1 µM): 20.3% | viability, T/C (second compound 0.316 µM, first compound 0.316 µM): 16.8% | viability, T/C (second compound 0.316 µM, first compound 1 µM): 26.6% | viability, T/C (second compound 1 µM, first compound 0.00316 µM): 102% | viability, T/C (second compound 1 µM, first compound 0.01 µM): 88.9% | viability, T/C (second compound 1 µM, first compound 0.0316 µM): 52.4% | viability, T/C (second compound 1 µM, first compound 0.1 µM): 18.4% | viability, T/C (second compound 1 µM, first compound 0.316 µM): 17.7% | viability, T/C (second compound 1 µM, first compound 1 µM): 25.9% | viability, T/C (second compound 3.16 µM, first compound 0.00316 µM): 95.6% | viability, T/C (second compound 3.16 µM, first compound 0.01 µM): 76.3% | viability, T/C (second compound 3.16 µM, first compound 0.0316 µM): 39.7% | viability, T/C (second compound 3.16 µM, first compound 0.1 µM): 17.4% | viability, T/C (second compound 3.16 µM, first compound 0.316 µM): 18.2% | viability, T/C (second compound 3.16 µM, first compound 1 µM): 27.7% | viability, T/C (second compound 10 µM, first compound 0.00316 µM): 87% | viability, T/C (second compound 10 µM, first compound 0.01 µM): 63.9% | viability, T/C (second compound 10 µM, first compound 0.0316 µM): 16.1% | viability, T/C (second compound 10 µM, first compound 0.1 µM): 16.3% | viability, T/C (second compound 10 µM, first compound 0.316 µM): 20.1% | viability, T/C (second compound 10 µM, first compound 1 µM): 29.6%
